Assay results reported in a flash point compilation (Sun et al. 2020).

In order of rising flash point:
1. CCCCCl [1-Chlorobutane]  -11.0 °C
2. CCC(C)(Cl)CC [3-Chloro-3-methylpentane]  9.5 °C
3. CCC(C)CCl (configuration not stated) [1-Chloro-2-methylbutane]  10 °C
4. CCC(C)(C)CCl [1-Chloro-2,2-dimethylbutane]  19.1 °C
5. CCCC(C)(C)Cl [2-Chloro-2-methylpentane]  21 °C
6. CCC(C)CCCl (configuration not stated) [1-Chloro-3-methylpentane]  25.1 °C
7. CCCCC(C)Cl (configuration not stated) [2-Chlorohexane]  25.1 °C
8. CCC(CC)CCl [3-(Chloromethyl)pentane]  25.1 °C
9. CCCC(Cl)CC (configuration not stated) [3-Chlorohexane]  25.1 °C
10. CCCC(C)CCl (configuration not stated) [1-Chloro-2-methylpentane]  25.1 °C
11. CCCCCCCl [1-Chlorohexane]  26.8 °C
12. CCC(C)C(C)(C)Cl (configuration not stated) [2-Chloro-2,3-dimethylpentane]  29.8 °C
13. CCC(Cl)(CC)CC [3-Chloro-3-ethylpentane]  33.6 °C
14. CC(C)(C)CC(C)(C)Cl [2-Chloro-2,4,4-trimethylpentane]  38.4 °C
15. CCCC(C)CCCl (configuration not stated) [1-Chloro-3-methylhexane]  39.2 °C
16. CCCCC(Cl)CC (configuration not stated) [3-Chloroheptane]  39.2 °C
17. CCCCCCCCl [1-Chloroheptane]  41.8 °C
18. CCCC(C)(Cl)C(C)C (configuration not stated) [3-Chloro-2,3-dimethylhexane]  43.6 °C
19. CCCCC(C)(Cl)CC (configuration not stated) [3-Chloro-3-methylheptane]  47.2 °C
20. CCCCCC(C)(C)Cl [2-Chloro-2-methylheptane]  47.2 °C
21. CCCC(C)(Cl)C(C)(C)C (configuration not stated) [3-Chloro-2,2,3-trimethylhexane]  51.7 °C
22. CCCCCCCCCl [1-Chlorooctane]  61.1 °C
23. CCCCCCCC(C)Cl (configuration not stated) [2-Chlorononane]  65.2 °C
24. CCCCC(Cl)CCCC [5-Chlorononane]  65.2 °C
25. CCCCCCCC(C)(C)Cl [2-Chloro-2-methylnonane]  72.2 °C
26. CCCCCCC(C)(Cl)CC (configuration not stated) [3-Chloro-3-methylnonane]  72.2 °C
27. CCC[C@H](Cl)CCCC(C)C [(S)-6-Chloro-2-methylnonane]  73.8 °C
28. CCCCCCCCC(C)Cl (configuration not stated) [2-Chlorodecane]  77.1 °C
29. CCCCCCCCCCCCl [1-Chloroundecane]  94.5 °C
30. CCCCCCCCC(Cl)CCCC (configuration not stated) [5-Chlorotridecane]  110.1 °C
31. CCCCCCCCCCCCCCCCCl [1-Chlorohexadecane]  138.2 °C

Remark: another data set of the same source

`CCCCCl` [1-Chlorobutane] showed a flash point of -9.3 °C.

Remark: another data set of the same source

For `CC#CCCCC` [2-heptyne], the flash point was 8 °C.

Remark: another data set of the same source

In order of falling flash point:
1. CCCCCCCCc1ccccc1 [octylbenzene]  107.1 °C
2. CCC(C)Cc1ccccc1 (configuration not stated) [(2-methylbutyl)benzene]  64.1 °C
3. CCc1ccc(C)cc1C [1-ethyl-2,4-dimethylbenzene]  57.1 °C
4. Cc1ccccc1C [o -xylene]  30.1 °C

Remark: another data set of the same source

In order of falling flash point:
1. CCCCc1ccccc1 [n-butylbenzene]  59 °C
2. C[C@@H]1CCCC[C@H]1C (relative stereo) [trans-1,2-dimethylcyclohexane]  6 °C
3. C[C@@H]1CCC[C@H](C)C1 [cis-1,3-dimethylcyclohexane]  5 °C
4. C1=CC2CCC1C2 [2-norbornene]  -15 °C
5. C/C=C/CCC [trans-2-hexene]  -20 °C
6. C=C(CC)CC [2-ethyl-1-butene]  -20 °C
7. C=C(C)CC [2-methyl-1-butene]  -34 °C

Remark: another data set of the same source

In order of falling flash point:
1. C[Si](C)(C)O[Si](C)(C)O[Si](C)(C)O[Si](C)(C)O[Si](C)(C)O[Si](C)(C)O[Si](C)(C)O[Si](C)(C)C [Octadecamethyloctasiloxane]  144.00 °C
2. CCO[Si](OCC)(OCC)OCC [Tetraethoxysilane]  50.00 °C
3. CC[Si](OC)(OC)OC [Ethyltrimethoxysilane]  27.00 °C
4. CO[Si](C)(OC)OC [Methyltrimethoxysilane]  11.00 °C
5. C=C[Si](C)(C)C=C [Divinyldimethylsilane]  8.00 °C

Remark: another data set of the same source

In order of rising flash point:
1. CC(C)(C)C [2,2-Dimethylpropane]  -65 °C
2. CCC(C)CC [3-Methylpentane]  -32 °C
3. CCCC(C)C [2-Methylpentane]  -23 °C
4. CCCC(C)(C)C [2,2-Dimethylpentane]  -23 °C
5. CCCC(C)CC (configuration not stated) [3-Methylhexane]  -15 °C
6. CCCCC(C)(C)C [2,2-Dimethylhexane]  -4 °C
7. CCC(C)C(C)(C)C (configuration not stated) [2,2,3-Trimethylpentane]  -3 °C
8. CCCC(C)(C)CC [3,3-Dimethylhexane]  -1 °C
9. CC(C)C(C)C(C)C [2,3,4-Trimethylpentane]  -0 °C
10. CCC(C)(CC)CC [3-Methyl-3-ethylpentane]  3 °C
11. CCC(C)C(C)CC (configuration not stated) [3,4-Dimethylhexane]  4 °C
12. CCC(C)CC(C)C (configuration not stated) [2,4-Dimethylhexane]  10 °C
13. CCC(CC)C(C)(C)C [3-Ethyl-2,2-dimethylpentane]  13 °C
14. CCCC(CC)CCC [4-Ethylheptane]  15 °C
15. CCC(C)(C)CC(C)C [2,4,4-Trimethylhexane]  15 °C
16. CCC(C)CC(C)(C)C (configuration not stated) [2,2,4-Trimethylhexane]  15 °C
17. CCCC(C)CC(C)C (configuration not stated) [2,4-Dimethylheptane]  15 °C
18. CCCC(C)(C)C(C)C [2,3,3-Trimethylhexane]  15 °C
19. CCC(C)CC(C)CC (configuration not stated) [3,5-Dimethylheptane]  15 °C
20. CCCCC(C)C(C)C (configuration not stated) [2,3-Dimethylheptane]  15 °C
21. CCCC(C)(C)CCC [4,4-Dimethylheptane]  15 °C
22. CCC(C)C(CC)CC (configuration not stated) [3-Ethyl-4-methylhexane]  15 °C
23. CCCCCC(C)CC (configuration not stated) [3-Methyloctane]  24 °C
24. CCCCCC(C)(C)C [2,2-Dimethylheptane]  24 °C
25. CCC(C)(C)CC(C)(C)C [2,2,4,4-Tetramethylhexane]  31 °C
26. CC(C)CC(C)CC(C)C [2,4,6-Trimethylheptane]  31 °C
27. CCC(C)(C)C(C)(C)CC [3,3,4,4-Tetramethylhexane]  31 °C
28. CCC(C)C(C)C(C)(C)C (configuration not stated) [2,2,3,4-Tetramethylhexane]  31 °C
29. CC(C)C(C)C(C)C(C)C (configuration not stated) [2,3,4,5-Tetramethylhexane]  31 °C
30. CCC(C)CC(CC)CC (configuration not stated) [3-Ethyl-5-methylheptane]  31 °C
31. CCC(C)(C)C(C)C(C)C (configuration not stated) [2,3,4,4-Tetramethylhexane]  31 °C
32. CCCCC(C)(CC)CC [3-Ethyl-3-methylheptane]  41 °C
33. CC(C)CCCCC(C)C [2,7-Dimethyloctane]  41 °C
34. CCCC(C)CC(C)CC (configuration not stated) [3,5-Dimethyloctane]  41 °C
35. CCCCCC(C)C(C)C (configuration not stated) [2,3-Dimethyloctane]  41 °C
36. CCCCCC(C)(C)CC [3,3-Dimethyloctane]  41 °C
37. CC(CC(C)(C)C)CC(C)(C)CC(C)(C)C (configuration not stated) [2,2,4,4,6,8,8-Heptamethylnonane]  95 °C

Remark: another data set of the same source

In order of rising flash point:
1. C=C(C)CC [2-methyl-1-butene]  -47 °C
2. C/C=C\C(C)C [cis-4-methyl-2-pentene]  -36 °C
3. C/C=C/CCC [trans-2-hexene]  -27 °C
4. C=C(CC)CC [2-ethyl-1-butene]  -26 °C
5. CC/C=C/CC [trans-3-hexene]  -25 °C
6. C=CC(C)CCC (configuration not stated) [3-methyl-1-hexene]  -18 °C
7. C=CC(CC)CC [3-ethyl-1-pentene]  -17 °C
8. C1=CC2CCC1C2 [2-norbornene]  -14 °C
9. CC/C=C\CCC [cis-3-heptene]  -9 °C
10. C/C=C\CCCC [cis-2-heptene]  -8 °C
11. CC=C(CC)CC [3-ethyl-2-pentene]  -6 °C
12. CCCCC(C)(C)C [2,2-dimethylhexane]  -3 °C
13. C=CC(CC)CCC (configuration not stated) [3-ethyl-1-hexene]  1 °C
14. CC#CCCCC [2-heptyne]  2 °C
15. C=CCC(C)CCC (configuration not stated) [4-methyl-1-heptene]  2 °C
16. CCCC(C)CCC [4-methylheptane]  5 °C
17. C[C@@H]1CCC[C@H](C)C1 [cis-1,3-dimethylcyclohexane]  6 °C
18. CC1(C)CCCCC1 [1,1-dimethylcyclohexane]  7 °C
19. C[C@@H]1CCCC[C@H]1C (relative stereo) [trans-1,2-dimethylcyclohexane]  7 °C
20. CC1=CC(C)CCC1 (configuration not stated) [1,3-dimethylcyclohexene]  12 °C
21. CC(C)C1CCCC1 [isopropylcyclopentane]  14 °C
22. CCC(C)CCC(C)C (configuration not stated) [2,5-dimethylheptane]  15 °C
23. CCC(C(C)C)C(C)C [3-ethyl-2,4-dimethylpentane]  15 °C
24. CCCC1CCCC1 [propylcyclopentane]  16 °C
25. CCC(C)(C)C(C)(C)C [2,2,3,3-tetramethylpentane]  16 °C
26. CCCCCCC(C)C [2-methyloctane]  24 °C
27. C=CCC1CCCCC1 [allylcyclohexane]  29 °C
28. CCCCCCC(C)(C)C [2,2-dimethyloctane]  31 °C
29. CCCCC1CCCC1 [n-butylcyclopentane]  35 °C
30. CCCCCC(C)C(C)C (configuration not stated) [2,3-dimethyloctane]  36 °C
31. CCCC(CCC)CCC [4-propylheptane]  41 °C
32. CCCCc1ccccc1 [n-butylbenzene]  50 °C
33. C1CC[C@H]2CCCC[C@H]2C1 [cis-decalin]  58 °C
34. Cc1cc(C)c(C)c(C)c1 [1,2,3,5-tetramethylbenzene]  63 °C
35. CCCCCC1CCCCC1 [n-pentylcyclohexane]  66 °C
36. C1CCC(C2CCCCC2)CC1 [bicyclohexyl]  92 °C
